Data set [1] has as its system Canidae. Particulars: oral, Dog Other, clinical signs.
Data set [2] has as its system Colinus virginianus. The conditions noted are these: reproduction developmental.
In data set [3] the test system is Bibionidae. The conditions noted are these: chronic/long-term; duration: 28 days.
Data set [4] has as its system Daphnia magna. Particulars: acute; duration: 48 hours; mortality.
In data set [5] the test system is Apis mellifera. Particulars: acute; duration: 48 hours; dermal; mortality.
Data set [6] relates to Anas platyrhynchos. The conditions noted are these: oral, mortality.
The subject of data set [7] is Lepomis macrochirus. The conditions noted are these: acute; duration: 96 hours; mortality.
Data set [8] relates to Rattus norvegicus.

Results on 1 molecule are retold here after EPA's ToxValDB 9.5 (doi:10.2903/j.efsa.2006.89r).

In brackets after ≈: the same amount, converted by molar mass.

`CCOC(=O)CCN(SN(C)C(=O)Oc1cccc2c1OC(C)(C)C2)C(C)C` [Benfuracarb]: the no-observed-adverse-effect level (NOAEL) in data set [1] (chronic, duration: 2 years) stood at 2.5 mg/kg-day; in data set [1] (chronic, duration: 6 months) it was 2.5 mg/kg-day; in data set [1] (subchronic, duration: 13 weeks) it was 0.625 mg/kg-day; in data set [8] (reproduction developmental, reproduction) it was 1.2 mg/kg-day; in data set [8] (short-term, duration: 28 days, clinical chemistry), 1.8 mg/kg-day. Besides, the NOEC in data set [2] is 8.93 mg/kg-day; in data set [3], 0.001 mg/L. Moreover, the LC50 was 0.0099 µg/mL (≈ 0.0241 µM) in data set [4]; 15 mg/kg-day in data set [6] (short-term, feed); 0.017 µg/mL (≈ 0.0414 µM) in data set [7]. The LD50 in data set [5] came to 0.19 µg/piece; in data set [6] (acute, unspecified), 19.8 mg/kg; in data set [8] (acute, oral, mortality), 205 mg/kg.
